Entries after “also recorded” stand apart in the source; their conditions may differ.
How the values were obtained:
KIT = KIT phosphorylation in canine mast cell tumor biopsies before and after a single dose (immunoprecipitation/Western blot); assay type: in vivo
Description: (§1) Study Design. This study was a proof of target modulation study in dogs with recurrent or metastatic grade MCTs. Patients received a single oral dose of Compound I phosphate at 3.25 mg/kg. Using a 6-mm punch biopsy instrument, samples were obtained from the tumor before Compound I phosphate administration and 8 hours (h) after treatment. When possible, multiple biopsies were taken. Each sample was flash frozen in liquid nitrogen and stored at −70° centigrade (C) before analysis. Blood samples for analysis of plasma levels of Compound I phosphate were obtained at the same time as tumor biopsies (see below).
Analysis of KIT and ERK Phosphorylation. Tumor biopsies were frozen in liquid nitrogen and later pulverized using a liquid nitrogen-cooled cryomortar and pestle, then stored at −70° C. until used. For the analysis of KIT, pulverized tumors were homogenized, lysed, and immunoprecipitated from 1 mg of starting tumor lysate, as described previously (Abrams, T. J., Lee, L. B., Murray, L. J., Pryer, N. K., Cherrington, J. M. SU11248 inhibits KIT and platelet-derived growth factor receptor beta in preclinical models of human small cell lung cancer. Mol. Cancer Ther. 2: 471-478, 2003; which is incorporated by reference in its entirety) using an agarose-conjugated antibody to KIT (SC-1493AC; Santa Cruz Biotechnology, Santa Cruz, Calif.). […] The amount of phosphorylated KIT in each sample was determined by Western blot using an antibody to phosphotyrosine 719 of murine KIT (3391; Cell Signaling Technology, Beverly, Mass.), which corresponds to tyrosine 721 of canine KIT and is an autophosphorylation site and, thus, a surrogate for KIT kinase activity. […] Target modulation was scored by eye by three observers blinded to the JM status and plasma concentration. Reduction of ≧50% in phospho-protein signal relative to total protein signal in the biopsy sample taken post-treatment compared with the pretreatment biopsy was scored as positive for target modulation, whereas a reduction of <50% was scored negative.

ERK1/2 = ERK1/2 phosphorylation in canine mast cell tumor biopsies before and after a single dose (Western blot); assay type: in vivo; conditions: single oral dose 3.25 mg/kg
Description: as §1
Analysis of KIT and ERK Phosphorylation. […] The amount of phosphorylated KIT in each sample was determined by Western blot using an antibody to phosphotyrosine 719 of murine KIT (3391; Cell Signaling Technology, Beverly, Mass.), which corresponds to tyrosine 721 of canine KIT and is an autophosphorylation site and, thus, a surrogate for KIT kinase activity. […] Target modulation was scored by eye by three observers blinded to the JM status and plasma concentration. Reduction of ≧50% in phospho-protein signal relative to total protein signal in the biopsy sample taken post-treatment compared with the pretreatment biopsy was scored as positive for target modulation, whereas a reduction of <50% was scored negative.

Cc1[nH]c(/C=C2\C(=O)Nc3ccc(F)cc32)c(C)c1C(=O)NCCN1CCCC1 [Compound I phosphate]
evaluable MCT biopsy pairs with detectable inhibition of KIT activation (KIT; Eight of 11, single oral dose): 73% | P-KIT reduction postdose (Phospho-Tyr721 KIT) (KIT; individual dogs, single oral dose 3.25 mg/kg, biopsy 8 h after treatment vs pretreatment): Yes (Reduction of ≧50% in phospho-protein signal relative to total protein signal in the biopsy sample taken post-treatment compared with the pretreatment biopsy was scored as positive for target modulation); also recorded: No (a reduction of <50% was scored negative) | evaluable dogs scored positive for KIT target modulation (≧50% reduction in phosphorylated KIT relative to total KIT) (KIT; single oral dose 3.25 mg/kg): Eight | P-ERK½ reduction postdose (Phospho-Thr202/Tyr204 ERK½) (ERK1/2; individual dogs, biopsy 8 h after treatment vs pretreatment): Yes (Reduction of ≧50% in phospho-protein signal relative to total protein signal in the biopsy sample taken post-treatment compared with the pretreatment biopsy was scored as positive for target modulation); also recorded: No (a reduction of <50% was scored negative) | evaluable tumors showing a reduction in the ratio of phospho-ERK1/2 to total ERK1/2 (ERK1/2): 7 of 11 evaluable
